Results taken from the supplement of paper PMC10307832.

Assays:
Assay in all cases: relative viability (nuclei count vs DMSO), 5 days (fraction); higher = more cells survive
JZL-184 = compound: C1CN(CCC1C(C2=CC3=C(C=C2)OCO3)(C4=CC5=C(C=C4)OCO5)O)C(=O)OC6=CC=C(C=C6)[N+](=O)[O-] [JZL-184]
In short: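 Only plates meeting two conditions passed: control CV below 25% and at least one doubling. Lung cancer cell lines, kept overnight at 37 °C in 1536-well plates, were pinned with five library-drug doses (not always all listed) √10 apart on vehicle-anchored plates and grown 5 days without medium change. A one-step fix, permeabilisation and Hoechst stain preceded 4× imaging and MetaXpress nuclear counting. Viability equals treated-well nuclei divided by vehicle-well nuclei, as the median over plates.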

JZL-184 + Trametinib = compound: C1CN(CCC1C(C2=CC3=C(C=C2)OCO3)(C4=CC5=C(C=C4)OCO5)O)C(=O)OC6=CC=C(C=C6)[N+](=O)[O-] [JZL-184] + CC(=O)Nc1cccc(-n2c(=O)n(C3CC3)c(=O)c3c(Nc4ccc(I)cc4F)n(C)c(=O)c(C)c32)c1 [Trametinib] (partner 0.02 µM)
In short: (§1)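 Lung cancer cell lines in 1536-well plates were dosed by pin tool the day after seeding, either with one drug alone or with a fixed anchor-drug dose plus five library-drug doses (not always all listed) in √10 steps. After 5 days, cells were fixed and their nuclei stained in one step (final 0.05% Triton X-100, 1% formaldehyde, 1 ug/ml Hoechst), then counted on 4× images. Relative viability is the nuclei count in treated wells divided by that in vehicle wells. Values are medians of duplicate plates.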

JZL-184 + Lapatinib = compound: C1CN(CCC1C(C2=CC3=C(C=C2)OCO3)(C4=CC5=C(C=C4)OCO5)O)C(=O)OC6=CC=C(C=C6)[N+](=O)[O-] [JZL-184] + CS(=O)(=O)CCNCc1ccc(-c2ccc3ncnc(Nc4ccc(OCc5cccc(F)c5)c(Cl)c4)c3c2)o1 [Lapatinib] (partner 2 µM)
In short: as §1

JZL-184 + AZD7762 = compound: C1CN(CCC1C(C2=CC3=C(C=C2)OCO3)(C4=CC5=C(C=C4)OCO5)O)C(=O)OC6=CC=C(C=C6)[N+](=O)[O-] [JZL-184] + NC(=O)Nc1cc(-c2cccc(F)c2)sc1C(=O)N[C@H]1CCCNC1 [AZD7762] (partner 0.2 µM)
In short: as §1

JZL-184 + Vorinostat = compound: C1CN(CCC1C(C2=CC3=C(C=C2)OCO3)(C4=CC5=C(C=C4)OCO5)O)C(=O)OC6=CC=C(C=C6)[N+](=O)[O-] [JZL-184] + O=C(CCCCCCC(=O)Nc1ccccc1)NO [Vorinostat] (partner 1 µM)
In short: as §1

| Cell Line | relative viability (JZL-184; 0.04 µM) | relative viability (JZL-184; 0.4 µM) | relative viability (JZL-184; 1.265 µM) | relative viability (JZL-184; 4 µM) | relative viability (JZL-184 + Trametinib; first compound 0.04 µM) | relative viability (JZL-184 + Trametinib; first compound 0.4 µM) | relative viability (JZL-184 + Trametinib; first compound 1.265 µM) | relative viability (JZL-184 + Trametinib; first compound 4 µM) | relative viability (JZL-184 + Lapatinib; first compound 0.04 µM) | relative viability (JZL-184 + Lapatinib; first compound 0.4 µM) | relative viability (JZL-184 + Lapatinib; first compound 1.265 µM) | relative viability (JZL-184 + Lapatinib; first compound 4 µM) | relative viability (JZL-184 + AZD7762; first compound 0.04 µM) | relative viability (JZL-184 + AZD7762; first compound 0.4 µM) | relative viability (JZL-184 + AZD7762; first compound 1.265 µM) | relative viability (JZL-184 + AZD7762; first compound 4 µM) | relative viability (JZL-184 + Vorinostat; first compound 0.04 µM) | relative viability (JZL-184 + Vorinostat; first compound 0.4 µM) | relative viability (JZL-184 + Vorinostat; first compound 1.265 µM) | relative viability (JZL-184 + Vorinostat; first compound 4 µM) |
| --- | --- | --- | --- | --- | --- | --- | --- | --- | --- | --- | --- | --- | --- | --- | --- | --- | --- | --- | --- | --- |
| NCI-H838 | 1.11 | 1.03 | 1.04 | 0.984 | 0.65 | 0.569 | 0.543 | 0.477 | 1.19 | 1.04 | 1.16 | 0.94 | 1.01 | 0.896 | 0.929 | 0.915 | 0.791 | 0.72 | 0.738 | 0.636 |
| NCI-H3122 | 1.01 | 0.955 | 1.01 | 0.98 | 0.211 | 0.168 | 0.242 | 0.242 | 0.959 | 0.916 | 1.01 | 1.08 | 1.05 | 0.866 | 0.99 | 1.02 | 1.05 | 0.988 | 0.965 | 1.06 |
| SK-MES-1 | 1.1 | 0.982 | 1.07 | 0.939 | 0.623 | 0.524 | 0.609 | 0.5 | 0.424 | 0.434 | 0.43 | 0.415 | – | – | – | – | 1.12 | 1.05 | 1.05 | 0.955 |
| NCI-H1944 | 0.954 | 0.921 | 1.03 | 1.01 | 0.438 | 0.385 | 0.452 | 0.417 | 0.805 | 0.803 | 0.875 | 0.846 | 0.556 | 0.469 | 0.531 | 0.54 | 0.528 | 0.476 | 0.565 | 0.475 |
| LK-2 | 1.13 | 0.928 | 1.21 | 0.944 | 0.903 | 0.736 | 0.856 | 0.721 | 1.24 | 0.878 | 1.04 | 0.972 | 0.438 | 0.501 | 0.422 | 0.411 | 0.275 | 0.309 | 0.251 | 0.295 |
| PC-3 [JPC-3] | 1.04 | 0.978 | 1.1 | 1.01 | 0.779 | 0.71 | 0.708 | 0.687 | 0.521 | 0.439 | 0.441 | 0.435 | 0.773 | 0.71 | 0.94 | 0.8 | 0.873 | 0.761 | 1.14 | 0.736 |
| COR-L23 | 1.2 | 1.06 | 1.03 | 0.971 | 0.774 | 0.516 | 0.684 | 0.54 | 1.26 | 0.818 | 0.889 | 0.823 | – | – | – | – | 0.649 | 0.472 | 0.477 | 0.459 |
| NCI-H1355 | 0.984 | 0.927 | 1.06 | 0.946 | 0.44 | 0.403 | 0.423 | 0.38 | 0.974 | 0.921 | 1.02 | 0.943 | 0.922 | 0.674 | 0.769 | 0.733 | 0.684 | 0.63 | 0.672 | 0.618 |
| NCI-H460 | 1.06 | 0.884 | 0.974 | 0.975 | 0.22 | 0.145 | 0.213 | 0.099 | 1.86 | 0.894 | 1.09 | 0.881 | 0.639 | 0.617 | 0.659 | 0.599 | 0.675 | 0.597 | 0.779 | 0.624 |
| NCI-H1993 | 0.943 | 0.982 | 1.08 | 0.916 | 0.496 | 0.51 | 0.517 | 0.559 | 0.767 | 0.807 | 0.827 | 0.885 | 0.704 | 0.725 | 0.885 | 0.803 | 0.907 | 0.736 | 1.21 | 0.764 |
| ChaGo-K-1 | 1.12 | 0.934 | 1.03 | 0.957 | 0.925 | 0.849 | 0.929 | 0.788 | – | – | – | – | 0.865 | 0.761 | 0.933 | 0.832 | 0.79 | 0.726 | 0.751 | 0.679 |
| HCC-15 | 1.07 | 1.03 | 1.08 | 0.978 | 0.384 | 0.353 | 0.413 | 0.431 | 0.988 | 0.813 | 0.943 | 0.778 | 1 | 1.21 | 1.3 | 1.14 | 0.918 | 0.796 | 0.919 | 0.773 |
| NCI-H2009 | 1.12 | 0.942 | 1.02 | 1 | 0.228 | 0.276 | 0.329 | 0.301 | 1.15 | 0.805 | 0.928 | 1.01 | – | – | – | – | 0.702 | 0.692 | 0.69 | 0.745 |
| SK-LU-1 | 1.11 | 0.982 | 1.15 | 1.02 | 0.448 | 0.402 | 0.653 | 0.46 | 1.21 | 0.814 | 0.962 | 0.822 | – | – | – | – | 0.795 | 0.744 | 0.894 | 0.717 |
